Assay results: ChEMBL document CHEMBL1201862, “PubChem BioAssay data set” (2004)
Calls of active or inactive are those of the source.

Experiments:
[1] = target: T1, RNA-binding protein pos-1 (Caenorhabditis elegans, UniProt G5EF15); test: inhibitors of POS-1/mex-3 RNA binding, dose response, biochemical, fluorescence polarization (AID 1964);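 note: purified POS-1 fused to maltose binding protein made in E. coli; potency of compounds blocking POS-1 binding to fluorescent RNA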
T1 sequence (G5EF15 whole entry): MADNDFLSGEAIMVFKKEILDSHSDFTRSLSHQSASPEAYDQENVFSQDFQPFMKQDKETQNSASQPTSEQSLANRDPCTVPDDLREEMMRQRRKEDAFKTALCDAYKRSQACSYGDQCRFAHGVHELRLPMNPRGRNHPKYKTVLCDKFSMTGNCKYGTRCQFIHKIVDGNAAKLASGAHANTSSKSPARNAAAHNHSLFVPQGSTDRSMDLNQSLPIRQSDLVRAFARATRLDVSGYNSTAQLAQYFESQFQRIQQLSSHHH

[2] = target: T2, Acyl-homoserine lactone acylase PvdQ (Pseudomonas aeruginosa (strain LESB58), UniProt Q9I194); test: P. aeruginosa PvdQ acylase inhibitors, dose response, biochemical, fluorescence, plate reader and imaging, cherry-picks (AID 493231)
T2 sequence (Q9I194 whole entry): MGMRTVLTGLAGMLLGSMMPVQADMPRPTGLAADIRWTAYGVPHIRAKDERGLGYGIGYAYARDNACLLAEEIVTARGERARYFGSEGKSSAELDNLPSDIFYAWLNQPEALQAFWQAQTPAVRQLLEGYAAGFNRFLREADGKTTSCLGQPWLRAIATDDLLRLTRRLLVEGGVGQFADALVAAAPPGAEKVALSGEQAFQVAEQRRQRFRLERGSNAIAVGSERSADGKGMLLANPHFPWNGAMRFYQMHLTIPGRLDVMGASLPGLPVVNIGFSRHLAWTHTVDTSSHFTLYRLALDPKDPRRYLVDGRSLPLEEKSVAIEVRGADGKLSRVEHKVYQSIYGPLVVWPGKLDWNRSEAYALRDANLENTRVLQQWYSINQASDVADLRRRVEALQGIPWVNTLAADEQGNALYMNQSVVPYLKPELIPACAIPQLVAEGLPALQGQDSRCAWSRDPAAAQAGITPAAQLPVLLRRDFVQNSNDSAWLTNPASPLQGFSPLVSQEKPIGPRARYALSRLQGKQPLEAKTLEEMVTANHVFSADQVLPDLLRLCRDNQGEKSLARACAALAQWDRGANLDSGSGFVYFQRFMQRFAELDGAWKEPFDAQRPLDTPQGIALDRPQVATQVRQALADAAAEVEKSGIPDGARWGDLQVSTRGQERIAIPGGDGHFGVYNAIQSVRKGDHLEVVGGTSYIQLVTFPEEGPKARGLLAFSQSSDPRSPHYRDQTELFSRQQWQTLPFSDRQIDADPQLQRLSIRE

[3] = target: T3, Zinc finger protein mex-5 (Caenorhabditis elegans, UniProt Q9XUB2); test: MEX-5/TCR-2 RNA interaction inhibitors, dose response, biochemical, C. elegans, fluorescence polarization (AID 1960)
T3 sequence (Q9XUB2 whole entry): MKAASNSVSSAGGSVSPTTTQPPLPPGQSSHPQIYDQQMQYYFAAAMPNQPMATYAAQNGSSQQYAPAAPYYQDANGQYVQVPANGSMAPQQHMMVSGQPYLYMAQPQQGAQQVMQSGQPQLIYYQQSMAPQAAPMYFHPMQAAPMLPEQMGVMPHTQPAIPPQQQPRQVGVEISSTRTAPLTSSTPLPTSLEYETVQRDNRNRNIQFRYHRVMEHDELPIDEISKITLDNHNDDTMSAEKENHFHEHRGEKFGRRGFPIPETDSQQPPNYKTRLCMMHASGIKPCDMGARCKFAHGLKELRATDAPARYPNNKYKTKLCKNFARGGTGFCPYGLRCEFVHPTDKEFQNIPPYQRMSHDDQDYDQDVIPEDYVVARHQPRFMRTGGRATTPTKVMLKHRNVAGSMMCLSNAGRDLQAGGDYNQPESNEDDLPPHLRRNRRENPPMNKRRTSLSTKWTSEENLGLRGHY

[4] = target: Heat shock protein HSP 90-alpha (Homo sapiens, UniProt P07900); test: Luminescence-based dose response biochemical high throughput screening assay for inhibitors of the Heat Shock Protein 90 (HSP90). [Related pubchem assays: 1831 (Summary AID.), 1846 (Confirmation screen.), 1789 (Primary screen.)]
Cytochrome P450 2C19 = Cytochrome P450 2C19 (Homo sapiens, UniProt P33261); test: qHTS Assay for Inhibitors and Substrates of Cytochrome P450 2C19. [Related pubchem assays: 410 ]; type: ADME; details: read-out: Potency
Sequence of Cytochrome P450 2C19 (P33261 whole entry): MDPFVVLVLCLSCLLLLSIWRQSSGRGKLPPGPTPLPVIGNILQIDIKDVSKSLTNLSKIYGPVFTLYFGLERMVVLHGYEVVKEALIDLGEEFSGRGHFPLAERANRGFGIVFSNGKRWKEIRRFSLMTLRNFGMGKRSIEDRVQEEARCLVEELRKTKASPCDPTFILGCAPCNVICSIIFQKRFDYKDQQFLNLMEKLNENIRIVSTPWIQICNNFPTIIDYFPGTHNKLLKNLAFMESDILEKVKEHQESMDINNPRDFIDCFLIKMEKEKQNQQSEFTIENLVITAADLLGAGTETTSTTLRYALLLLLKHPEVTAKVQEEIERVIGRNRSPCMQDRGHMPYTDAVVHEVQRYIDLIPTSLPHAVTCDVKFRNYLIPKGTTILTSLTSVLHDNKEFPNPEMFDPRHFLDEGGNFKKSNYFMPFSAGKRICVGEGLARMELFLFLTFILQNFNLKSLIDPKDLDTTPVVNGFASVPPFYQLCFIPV

Cytochrome P450 3A4 = Cytochrome P450 3A4 (Homo sapiens, UniProt P08684); details: Potency;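 note: confirmatory qHTS run detecting inhibitors and substrates of CYP3A4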
Sequence of Cytochrome P450 3A4 (P08684 whole entry): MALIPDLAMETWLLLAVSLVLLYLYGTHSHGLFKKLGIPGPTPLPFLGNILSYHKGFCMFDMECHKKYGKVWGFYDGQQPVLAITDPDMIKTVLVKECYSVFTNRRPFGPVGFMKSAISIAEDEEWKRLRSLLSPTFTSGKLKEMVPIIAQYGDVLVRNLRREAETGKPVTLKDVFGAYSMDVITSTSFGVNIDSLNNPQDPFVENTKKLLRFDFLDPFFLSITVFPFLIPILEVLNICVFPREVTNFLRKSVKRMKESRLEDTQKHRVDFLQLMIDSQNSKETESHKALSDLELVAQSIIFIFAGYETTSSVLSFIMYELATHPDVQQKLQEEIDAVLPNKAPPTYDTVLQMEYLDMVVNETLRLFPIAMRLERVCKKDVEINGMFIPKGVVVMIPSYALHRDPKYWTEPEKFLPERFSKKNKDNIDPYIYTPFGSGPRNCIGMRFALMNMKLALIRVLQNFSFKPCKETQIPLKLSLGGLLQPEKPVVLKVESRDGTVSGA

Cytochrome P450 2C9 = Cytochrome P450 2C9 (Homo sapiens, UniProt P11712); details: Potency
Sequence of Cytochrome P450 2C9 (P11712 whole entry): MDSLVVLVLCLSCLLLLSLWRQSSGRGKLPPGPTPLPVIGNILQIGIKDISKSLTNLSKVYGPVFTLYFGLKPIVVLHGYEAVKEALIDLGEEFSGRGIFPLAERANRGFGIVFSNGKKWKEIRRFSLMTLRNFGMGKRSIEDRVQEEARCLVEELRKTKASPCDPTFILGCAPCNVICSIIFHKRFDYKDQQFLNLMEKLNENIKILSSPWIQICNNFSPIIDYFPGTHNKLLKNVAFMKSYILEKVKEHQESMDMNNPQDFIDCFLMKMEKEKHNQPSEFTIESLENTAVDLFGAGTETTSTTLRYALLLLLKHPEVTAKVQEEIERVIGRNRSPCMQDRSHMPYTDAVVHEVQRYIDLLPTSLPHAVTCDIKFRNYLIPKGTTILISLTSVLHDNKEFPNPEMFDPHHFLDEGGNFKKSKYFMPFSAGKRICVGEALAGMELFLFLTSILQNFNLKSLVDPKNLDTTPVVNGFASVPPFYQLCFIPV

[5] = inhibitors of SNCA 5'UTR-driven reporter translation, confirmation, H4 neuroglioma cells, luminescence (AID 1988); type: functional, cell-based
Transthyretin = Transthyretin (Homo sapiens, UniProt P02766); test: Luminescence-based cell-based high throughput dose response assay to identify activators of Transthyretin (TTR) transcription.; type: functional
[6] = inhibitors of firefly luciferase expression or activity, dose response, H4 neuroglioma cells, luminescence (AID 1990); type: functional, cell-based
[7] = Luminescence Cell-Based Dose Response HTS to Identify Inhibitors of 5'UTR Stem-Loop Driven Prion Protein mRNA Translation in H4 Neuroglioblastoma Cells. [Related pubchem assays: 1827 (Project Summary), 1813 (Primary HTS)]; type: functional
[8] = off-target signal loss in HeLa-CEM21 co-culture – HeLa F-luc CTL cells, cherry-picked, counter-screen for HIV-1 Env fusion inhibitor project, dose response (AID 652040); type: functional, cell-based;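 note: potency for signal decrease marking cytotoxic or nonspecific inhibition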
[9] = inhibitors of clade B AD8 Env fusion, dose response, cell-based, cherry-pick (AID 652062); type: functional;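 note: luciferase signal from cell-cell fusion driven by HIV-1 clade B AD8 Env; potency is for inhibitors of fusion seen as a drop in luminescence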
[10] = inhibitors of HIV Env-driven cell fusion, dose response, cherry-pick (AID 652057); type: functional, cell-based
[11] = CEM21 lymphoblast cell cytotoxicity, dose response, cytotoxicity control for viral fusion inhibitor project, CellTiter-Glo luminescence, cherry-picked (AID 652042); type: functional, cell-based;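 note: potency for signal decrease meaning cytotoxicity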
[12] = target: COUP transcription factor 2 (Homo sapiens, UniProt P24468); test: Luminescence-based cell-based high throughput dose response assay to identify inhibitors of COUP-TFII (NR2F2).; type: functional;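 note: HEK293 cells transiently cotransfected with COUP-TFII expression vector and reporter; luciferase reporter luminescence driven by COUP-TFII from the pX2-168 reporter plasmid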
Sequence of COUP transcription factor 2 (P24468 whole entry, the tested form may be a part): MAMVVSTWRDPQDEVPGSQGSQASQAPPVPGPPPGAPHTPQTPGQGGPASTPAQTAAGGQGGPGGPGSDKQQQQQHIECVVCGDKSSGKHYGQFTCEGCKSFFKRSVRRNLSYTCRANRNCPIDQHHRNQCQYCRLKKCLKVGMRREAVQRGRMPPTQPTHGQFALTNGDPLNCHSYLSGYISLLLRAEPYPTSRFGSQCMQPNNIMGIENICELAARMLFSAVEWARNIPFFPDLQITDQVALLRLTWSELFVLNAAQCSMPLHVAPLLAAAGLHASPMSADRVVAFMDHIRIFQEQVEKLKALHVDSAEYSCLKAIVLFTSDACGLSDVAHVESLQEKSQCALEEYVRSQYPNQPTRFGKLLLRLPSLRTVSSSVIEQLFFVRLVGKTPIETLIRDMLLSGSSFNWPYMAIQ

[13] = ZM109 Env clade C HIV-1 fusion inhibitors, dose response, HeLa effector, CEM target cells, luciferase, cherry-pick (AID 652058); type: functional, cell-based
[14] = cytotoxicity toward NIH3T3 fibroblasts, dose response, counter-screen, cell-based, ATP luminescence, mouse fibroblasts (AID 2010); type: functional;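 note: cells exposed to compound for about 90 hours before reading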
[15] = inhibitors of intracellular T. cruzi replication, confirmation, NIH3T3 host cells, beta-gal luminescence (AID 2044); type: functional, cell-based;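 note: intracellular parasites grown in NIH/3T3 mouse fibroblasts as host cells; luminescent beta-galactosidase reporter signal from transgenic T. cruzi replicating inside host cells; inhibitors lower the luminescence signal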
Prothrombin = Prothrombin (Homo sapiens, UniProt P00734); test: Thrombin 1536 HTS Dose Response Confirmation. [Related pubchem assays: 1046 (Thrombin 1536 HTS; hits were confirmed in this assay)]; type: functional
HEK293 = test: HEK293T cell cytotoxicity, dose response, cytotoxicity control, ATP luminescence, cherry-pick samples (AID 687005); type: functional, cell-based; details: Homo sapiens;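 note: cells exposed to compound for 48 hours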
[16] = HEK293 Cytotoxicity Assay Measured in Cell-Based System Using Plate Reader - 7071-01_Inhibitor_Dose_CherryPick_Activity_Set2.; type: functional
Protein skinhead-1 = target: T4, Protein skinhead-1 (Caenorhabditis elegans, UniProt P34707); type: functional
T4 sequence (P34707 whole entry): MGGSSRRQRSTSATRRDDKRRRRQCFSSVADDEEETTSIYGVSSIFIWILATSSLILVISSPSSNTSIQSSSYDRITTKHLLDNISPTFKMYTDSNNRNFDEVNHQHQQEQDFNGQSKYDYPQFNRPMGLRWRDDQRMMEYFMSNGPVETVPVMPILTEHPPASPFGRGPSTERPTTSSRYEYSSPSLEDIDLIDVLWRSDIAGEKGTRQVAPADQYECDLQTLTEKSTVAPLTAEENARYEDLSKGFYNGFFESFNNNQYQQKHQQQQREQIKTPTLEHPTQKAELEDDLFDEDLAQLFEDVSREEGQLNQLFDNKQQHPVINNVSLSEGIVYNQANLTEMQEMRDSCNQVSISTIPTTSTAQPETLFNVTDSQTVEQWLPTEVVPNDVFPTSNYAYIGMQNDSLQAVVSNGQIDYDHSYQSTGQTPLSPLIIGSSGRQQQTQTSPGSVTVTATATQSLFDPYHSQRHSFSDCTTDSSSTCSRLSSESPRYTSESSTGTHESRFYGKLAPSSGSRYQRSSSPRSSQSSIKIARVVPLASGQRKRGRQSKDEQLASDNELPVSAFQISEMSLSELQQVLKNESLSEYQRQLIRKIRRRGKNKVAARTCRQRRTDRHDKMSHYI

Kallikrein-7 = Kallikrein-7 (Homo sapiens, UniProt P49862); test: Fluorescence Intensity-based biochemical primary high throughput dose response assay to identify activators of kallikrein-7 (K7) zymogen.
Sequence of Kallikrein-7 (P49862 whole entry): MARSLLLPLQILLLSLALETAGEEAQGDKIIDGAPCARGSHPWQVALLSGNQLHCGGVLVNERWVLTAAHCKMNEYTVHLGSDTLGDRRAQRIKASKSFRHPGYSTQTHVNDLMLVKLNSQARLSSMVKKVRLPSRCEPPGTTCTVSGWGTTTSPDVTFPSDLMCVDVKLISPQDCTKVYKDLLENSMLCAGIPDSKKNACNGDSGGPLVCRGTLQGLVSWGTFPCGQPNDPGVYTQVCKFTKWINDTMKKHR

Paired box protein Pax-8 = Paired box protein Pax-8 (Homo sapiens, UniProt Q06710); test: inhibitors of PAX8-driven TPO luciferase reporter, dose response, RMG-I cells, cherry-pick (AID 687027); type: functional, cell-based;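 note: luciferase reporter driven by Pax8 target thyroperoxidase promoter measured by SteadyGlo luminescence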
Sequence of Paired box protein Pax-8 (Q06710 whole entry): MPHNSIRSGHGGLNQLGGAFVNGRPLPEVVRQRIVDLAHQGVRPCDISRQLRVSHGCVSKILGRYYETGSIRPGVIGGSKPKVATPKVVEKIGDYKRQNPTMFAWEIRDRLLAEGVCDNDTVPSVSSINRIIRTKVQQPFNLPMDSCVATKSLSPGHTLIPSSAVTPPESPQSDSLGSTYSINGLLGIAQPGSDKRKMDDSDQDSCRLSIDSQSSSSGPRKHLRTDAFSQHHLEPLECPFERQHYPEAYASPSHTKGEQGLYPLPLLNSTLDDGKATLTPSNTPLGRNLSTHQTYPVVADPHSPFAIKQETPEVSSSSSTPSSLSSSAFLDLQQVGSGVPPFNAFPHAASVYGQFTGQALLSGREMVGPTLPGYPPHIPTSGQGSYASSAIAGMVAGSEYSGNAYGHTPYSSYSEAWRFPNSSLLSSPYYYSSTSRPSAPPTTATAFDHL

[17] = cytotoxicity in OVCAR8 ovarian cancer cells, dose response, PAX8 project, cell-based, plate reader, dry powder samples (AID 743197); type: functional; details: OVCAR-8
[18] = NIH:OVCAR-3 ovarian cancer cell cytotoxicity, dose response, PAX8 inhibitor project, plate reader, dry powder samples (AID 743044); type: functional, cell-based
[19] = target: Potassium channel subfamily K member 9 (Homo sapiens, UniProt Q9NPC2); test: TASK3 (KCNK9) channel inhibitors, thallium flux, SAR follow-up, selectivity assay for TASK1 inhibitor project, cell-based, FluxOR thallium flux, concentration-response (AID 652211); type: functional;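 note: potency is for inhibitors of the channel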
Sequence of Potassium channel subfamily K member 9 (Q9NPC2 whole entry): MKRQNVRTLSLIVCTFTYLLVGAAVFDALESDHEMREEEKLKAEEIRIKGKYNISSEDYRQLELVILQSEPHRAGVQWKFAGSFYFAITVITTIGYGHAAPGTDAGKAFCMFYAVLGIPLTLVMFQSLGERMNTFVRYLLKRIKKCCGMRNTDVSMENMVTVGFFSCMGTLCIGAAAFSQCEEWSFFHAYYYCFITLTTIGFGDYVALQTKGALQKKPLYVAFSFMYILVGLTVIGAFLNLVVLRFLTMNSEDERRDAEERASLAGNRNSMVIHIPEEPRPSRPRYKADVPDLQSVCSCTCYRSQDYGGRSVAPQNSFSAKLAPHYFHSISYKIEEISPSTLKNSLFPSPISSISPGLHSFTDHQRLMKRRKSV

[20] = target: Potassium channel subfamily K member 3 (Homo sapiens, UniProt O14649); test: TASK1 (KCNK3) potassium channel inhibitors, SAR follow-up, CHO cells, FluxOR thallium flux (AID 652212); type: functional
Sequence of Potassium channel subfamily K member 3 (O14649 whole entry): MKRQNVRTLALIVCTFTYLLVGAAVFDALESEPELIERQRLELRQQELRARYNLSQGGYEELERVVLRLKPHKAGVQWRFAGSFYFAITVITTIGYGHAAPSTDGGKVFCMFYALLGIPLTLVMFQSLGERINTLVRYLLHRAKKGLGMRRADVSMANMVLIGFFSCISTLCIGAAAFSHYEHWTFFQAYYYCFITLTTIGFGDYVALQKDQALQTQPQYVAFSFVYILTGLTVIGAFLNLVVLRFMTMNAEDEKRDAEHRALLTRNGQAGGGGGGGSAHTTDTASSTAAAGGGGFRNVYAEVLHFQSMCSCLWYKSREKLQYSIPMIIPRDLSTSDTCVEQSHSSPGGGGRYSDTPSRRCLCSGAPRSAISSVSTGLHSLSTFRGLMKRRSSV

[21] = inhibitors of PGC1a acetylation in cells, dose response, cell-based, cherry-picked samples (AID 720514); type: functional;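 note: potency may reflect raised or lowered acetylation signal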
[22] = Glucagon-like peptide 1 release potency, NCI-H716 cell line, dose-response, half-maximal inhibitory concentration (AID 1117344); type: functional, cell-based
[23] = half-maximal inhibitory concentration for glucagon-like peptide-1 release, STC-1 cell line, dose-response (AID 1117345); type: functional, cell-based

CCOC(=O)c1ccc(-c2ccc(C=O)o2)cc1
EC50 [1]: 43.6 µM (active) | AC50 [2]: 9.42 µM (active) | EC50 [3]: > 300 µM (not active) | IC50 [4]: 10.3 µM (not active)

COC(=O)C/C=C/C(C)C(OCc1cccc(Br)c1)C(C)C(OC)C1CCCCC1 (configuration not stated)
AC50 (Cytochrome P450 2C19): 5.01 µM (inconclusive) | AC50 (Cytochrome P450 3A4): 3.98 µM (inconclusive)

Cc1ccc(/C=C/C2=CC3(C)CC2(C)C(c2ccc(C)cc2)CC3=O)cc1 (configuration not stated)
AC50 (Cytochrome P450 2C9): 3.98 µM (inconclusive) | AC50 (Cytochrome P450 2C19): 0.631 µM (inconclusive)

COc1ccc(-c2cn3c(C)c(C(=O)Nc4cccc(C)n4)sc3n2)cc1
IC50 [4]: 0.327 µM (active)

Cc1ccc(CNC(=O)Cc2ccc(-c3ccccc3)cc2)cc1
EC50 [5]: 6.89 µM (active) | EC50 (Transthyretin): > 167 µM (inactive) | EC50 [6]: > 120 µM (not active) | EC50 [7]: 10.4 µM (active)

Cc1cccc(Nc2nc(-c3c(C)nc4ccccn34)cs2)c1
AC50 [8]: 2.7 µM (active) | AC50 [9]: 7.63 µM (active) | AC50 [10]: 6.19 µM (active) | AC50 [11]: 29.6 µM (active) | IC50 [12]: 8.41 µM (active) | AC50 [13]: 7.64 µM (active)

CCOc1ccc(CNCCc2ccc3c(c2)OCO3)cc1
EC50 [14]: > 60 µM (not active) | EC50 (cells): 0.496 µM (active) | EC50 [15]: < 0.1 µM (active)

CC(=O)N1c2ccccc2N2C(c3c(C)c(C)cc(C)c3C)=NON12
IC50 (Prothrombin): 3.37 µM (active)

CC(NC(=O)COc1ccccc1-c1ccccc1)c1ccccc1 (configuration not stated)
AC50 (HEK293): 35.9 µM (active) | AC50 [16]: 35.9 µM (active)

CC(C)OCCCn1c(=S)[nH]c2cc3c(cc2c1=O)OCO3
IC50 (Prothrombin): > 50 µM (not active) | IC50 (Protein skinhead-1): > 100 µM (inactive)

Cc1ccc(CNC(=O)CCC2CCCN(Cc3c(C)nn(C(C)C)c3C)C2)o1 (configuration not stated)
EC50 [14]: > 60 µM (not active) | EC50 (cells): 0.011 µM (active) | EC50 [15]: < 0.1 µM (active)

COc1ccccc1C1C=C(c2ccccc2)Nc2nnnn21 (configuration not stated)
EC50 (Kallikrein-7): 12.1 µM (inactive)

O=C(C[C@H]1CC[C@H]2[C@@H](COC[C@H](O)CN2Cc2cccc(Cl)c2)O1)Nc1nccs1
AC50 (HEK293): 16.7 µM (active) | AC50 [16]: 16.7 µM (active)

C[C@@H]1CN([C@H](C)CO)C(=O)c2cc(NC(=O)CCC(F)(F)F)ccc2O[C@@H](C)CCCCO[C@@H]1CN(C)Cc1ccc(C(F)(F)F)cc1
AC50 (Paired box protein Pax-8): 8.65 µM (active) | AC50 [17]: 45.3 µM (active) | AC50 [18]: 26.5 µM (active)

O=C(c1cccs1)C1CCN(c2ncnc3sccc23)CC1
IC50 [12]: 4.18 µM (active)

COc1ccccc1C(=O)Nc1cc(NC(=O)c2cccc(C)c2)ccc1F
IC50 [19]: 6.31 µM (active) | IC50 [20]: 0.159 µM (active)

N#Cc1ccc(-c2ccc([C@@H]3[C@H]4CNC[C@@H]3N4Cc3ccc4c(c3)OCO4)cc2)cc1
AC50 [21]: 16.9 µM (active)

CCOc1ccccc1NC(=O)c1cccc(NC(=O)c2ccccc2OC)c1
IC50 [19]: 1.18 µM (active) | IC50 [20]: 0.007 µM (active)

Cc1ccccc1Cn1cc(COC(=O)N(C)Cc2ccccc2)nn1
EC50 (Transthyretin): > 167 µM (inactive)

Cc1c(C)n(CCN(C)C)c2ccc(C(=O)OCCN(C)C)cc12 [AMINDOCATE]
IC50 [22]: > 40 µM (inactive) | IC50 [23]: 1.2 µM (active)

O=c1[nH]sc2cc(Cl)ccc12 [TICLATONE]
IC50 [22]: > 40 µM (inactive) | IC50 [23]: > 40 µM (inactive)
